# Measurements published in paper PMC11277489, “Novel Piperazine Derivatives of Vindoline as Anticancer Agents” (International Journal of Molecular Sciences, 2024).
# Like-named read-outs stand apart in the source and are kept apart here.
# Columns and labels:
# SR = assay: NCI60 one-dose screen (10 μM), Leukemia; format: cell-based; details: Homo sapiens, read-out: Growth percent rate
# HOP-92 = assay: NCI60 one-dose screen (10 μM), Non-small Cell Lung Cancer; format: cell-based; details: Homo sapiens
# NCI-H226 = assay: as above; format: cell-based; details: Homo sapiens
# KM12 = assay: NCI60 one-dose screen (10 μM), Colon Cancer; format: cell-based, human; details: Homo sapiens
# SF-295 = assay: NCI60 one-dose screen (10 μM), CNS Cancer; format: cell-based; details: Homo sapiens
# SNB-19 = assay: NCI60 one-dose screen (10 μM), CNS Cancer; format: cell-based; details: Homo sapiens
# LOX IMVI = assay: NCI60 one-dose screen (10 μM), Melanoma; format: cell-based, human; details: Homo sapiens, LOX IMVI, read-out: Growth percent rate
# MALME-3M = assay: NCI60 one-dose screen (10 μM), Melanoma; format: cell-based; details: Homo sapiens, read-out: Growth percent rate
# UACC-62 = assay: NCI60 one-dose screen (10 μM), Melanoma; format: cell-based; details: Homo sapiens
# OVCAR-5 = assay: NCI60 one-dose screen (10 μM), Ovarian Cancer; format: cell-based; details: Homo sapiens
# NCI/ADR-RES = assay: NCI60 one-dose screen (10 μM), Ovarian Cancer; format: cell-based; details: Homo sapiens, read-out: Growth percent rate
# SK-OV-3 = assay: NCI60 one-dose screen (10 μM), Ovarian Cancer; format: cell-based; details: Homo sapiens
# TK-10 = assay: NCI60 one-dose screen (10 μM), Renal Cancer; format: cell-based; details: Homo sapiens
# UO-31 = assay: NCI60 one-dose screen (10 μM), Renal Cancer; format: cell-based; details: Homo sapiens
# PC-3 = assay: NCI60 one-dose screen (10 μM), Prostate Cancer; format: cell-based; details: Homo sapiens
# MDA-MB-231/ATCC = assay: NCI60 one-dose screen (10 μM), Breast Cancer; format: cell-based, human; details: Homo sapiens
# BT-549 = assay: NCI60 one-dose screen (10 μM), Breast Cancer; format: cell-based; details: Homo sapiens
# T-47D = assay: NCI60 one-dose screen (10 μM), Breast Cancer; format: cell-based; details: Homo sapiens, T47D, read-out: Growth percent rate
# MDA-MB-468 = assay: NCI60 one-dose screen (10 μM), Breast Cancer; format: cell-based; details: Homo sapiens
structure (smiles),measurement,setting,value
"CCC12C=CCN3CCC4(c5ccc(OC)cc5N(C)C4C(O)(C(=O)OC)C1OC(=O)CCCBr)C32 (centres unmarked) [Compound 14, 17-(O-4-bromobutanoyl)vindoline]",activity at 10 µM,"SR; 10 μM, Leukemia",98.4%
same,activity at 10 µM,"HOP-92; 10 μM, HOP-92, Non-small Cell Lung Cancer, read-out: Growth percent rate",77.6%
same,activity at 10 µM,"NCI-H226; 10 μM, NCI-H226, Non-small Cell Lung Cancer, read-out: Growth percent rate",96%
same,activity at 10 µM,"KM12; 10 μM, KM12, Colon Cancer, read-out: Growth percent rate",100%
same,activity at 10 µM,"SF-295; 10 μM, SF-295, CNS Cancer, read-out: Growth percent rate",86.9%
same,activity at 10 µM,"SNB-19; 10 μM, SNB-19, CNS Cancer, read-out: Growth percent rate",89.3%
same,activity at 10 µM,"LOX IMVI; 10 μM, Melanoma",88.6%
same,activity at 10 µM,"MALME-3M; 10 μM, MALME-3M, Melanoma",101%
same,activity at 10 µM,"UACC-62; 10 μM, UACC-62, Melanoma, read-out: Growth percent rate",83.8%
same,activity at 10 µM,"OVCAR-5; 10 μM, OVCAR-5, Ovarian Cancer, read-out: Growth percent rate",101%
same,activity at 10 µM,"NCI/ADR-RES; 10 μM, Ovarian Cancer",89.2%
same,activity at 10 µM,"SK-OV-3; 10 μM, SK-OV-3, Ovarian Cancer, read-out: Growth percent rate",101%
same,activity at 10 µM,"TK-10; 10 μM, TK-10, Renal Cancer, read-out: Growth percent rate",100%
same,activity at 10 µM,"UO-31; 10 μM, UO-31, Renal Cancer, read-out: Growth percent rate",82.5%
same,activity at 10 µM,"PC-3; 10 μM, PC-3, Prostate Cancer, read-out: Growth percent rate",79%
same,activity at 10 µM,"MDA-MB-231/ATCC; 10 μM, MDA-MB-231/ATCC, Breast Cancer, read-out: Growth percent rate",90.6%
same,activity at 10 µM,"BT-549; 10 μM, BT-549, Breast Cancer, read-out: Growth percent rate",99.1%
same,activity at 10 µM,"T-47D; 10 μM, T-47D, Breast Cancer",77.2%
same,activity at 10 µM,"MDA-MB-468; 10 μM, MDA-MB-468, Breast Cancer, read-out: Growth percent rate",95.7%
CC[C@]12C=CCN3CC[C@@]4(c5ccc(OC)cc5N(C)[C@H]4[C@@](O)(C(=O)OC)[C@@H]1OC(=O)CCC(=O)N1CCN(C(=O)c4ccco4)CC1)[C@@H]32 [Compound 32],activity at 10 µM,SR,117%
same,activity at 10 µM,"HOP-92; HOP-92, read-out: Growth percent rate",92.4%
same,activity at 10 µM,"NCI-H226; NCI-H226, read-out: Growth percent rate",115%
same,activity at 10 µM,"KM12; KM12, read-out: Growth percent rate",100%
same,activity at 10 µM,"SF-295; SF-295, read-out: Growth percent rate",95.2%
same,activity at 10 µM,"SNB-19; SNB-19, read-out: Growth percent rate",91.2%
same,activity at 10 µM,LOX IMVI,97.8%
same,activity at 10 µM,MALME-3M; Malme-3M,82%
same,activity at 10 µM,"UACC-62; UACC-62, read-out: Growth percent rate",59.5%
same,activity at 10 µM,"OVCAR-5; OVCAR-5, read-out: Growth percent rate",105%
same,activity at 10 µM,NCI/ADR-RES,106%
same,activity at 10 µM,"SK-OV-3; SK-OV-3, read-out: Growth percent rate",111%
same,activity at 10 µM,"TK-10; TK-10, read-out: Growth percent rate",103%
same,activity at 10 µM,"UO-31; UO-31, read-out: Growth percent rate",98.8%
same,activity at 10 µM,"PC-3; PC-3, read-out: Growth percent rate",90.6%
same,activity at 10 µM,"MDA-MB-231/ATCC; MDA-MB-231, read-out: Growth percent rate",91.1%
same,activity at 10 µM,"BT-549; BT-549, read-out: Growth percent rate",122%
same,activity at 10 µM,T-47D,92.5%
same,activity at 10 µM,"MDA-MB-468; MDA-MB-468, read-out: Growth percent rate",78%
